As a reminder, the IC50 is the concentration that inhibits the measured activity by half. As usually defined, the viability, T/C is the result in the treated group divided by that in the control group, in per cent.

The text below walks through data of PubChem BioAssay AID1963447 (Molecular Pharmacology Branch, DTP, NCI, 2024).

For this test, the system named is 885512-296-R-J2-PDC complex spheroid growth, % test/control. Briefly: Anticancer human tumor 885512-296-R-J2-PDC patient-derived breast carcinoma cell line growth inhibition [Asc]. To be noted: for viability, T/C: stronger effect = lower value. The procedure, abridged: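 Tumor cells were grown as multicellular spheroids with stromal HUVEC and mesenchymal stem cells and treated singly or in combination. Concentrations fell in half-log steps from the clinical Cmax, or from 10 microM where none was known.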

Where [1] appears, read: curve of first compound, second compound 0.03 µM.
The mark [2] stands for this setting: curve of first compound, second compound 0.0949 µM.
The mark [3] stands for this setting: curve of first compound, second compound 0.3 µM.
Where [4] appears, read: curve of first compound, second compound 0.949 µM.
The mark [5] stands for this setting: curve of first compound, second compound 3 µM.
[6] abbreviates: second compound 0.03 µM, first compound 0.00316 µM.
The mark [7] stands for this setting: second compound 0.03 µM, first compound 0.01 µM.
Setting [8] is: second compound 0.03 µM, first compound 0.0316 µM.
Where [9] appears, read: second compound 0.03 µM, first compound 0.1 µM.
Where [10] appears, read: second compound 0.03 µM, first compound 0.316 µM.
Where [11] appears, read: second compound 0.03 µM, first compound 1 µM.
Where [12] appears, read: second compound 0.0949 µM, first compound 0.00316 µM.
Where [13] appears, read: second compound 0.0949 µM, first compound 0.01 µM.
Where [14] appears, read: second compound 0.0949 µM, first compound 0.0316 µM.
[15] abbreviates: second compound 0.0949 µM, first compound 0.1 µM.
Where [16] appears, read: second compound 0.0949 µM, first compound 0.316 µM.
Where [17] appears, read: second compound 0.0949 µM, first compound 1 µM.
Where [18] appears, read: second compound 0.3 µM, first compound 0.00316 µM.
Where [19] appears, read: second compound 0.3 µM, first compound 0.01 µM.
[20] abbreviates: second compound 0.3 µM, first compound 0.0316 µM.
[21] abbreviates: second compound 0.3 µM, first compound 0.1 µM.
The mark [22] stands for this setting: second compound 0.3 µM, first compound 0.316 µM.
The mark [23] stands for this setting: second compound 0.3 µM, first compound 1 µM.
The mark [24] stands for this setting: second compound 0.949 µM, first compound 0.00316 µM.
Where [25] appears, read: second compound 0.949 µM, first compound 0.01 µM.
The mark [26] stands for this setting: second compound 0.949 µM, first compound 0.0316 µM.
The mark [27] stands for this setting: second compound 0.949 µM, first compound 0.1 µM.
The mark [28] stands for this setting: second compound 0.949 µM, first compound 0.316 µM.
Where [29] appears, read: second compound 0.949 µM, first compound 1 µM.
[30] abbreviates: second compound 3 µM, first compound 0.00316 µM.
The mark [31] stands for this setting: second compound 3 µM, first compound 0.01 µM.
Setting [32] is: second compound 3 µM, first compound 0.0316 µM.
Where [33] appears, read: second compound 3 µM, first compound 0.1 µM.
Where [34] appears, read: second compound 3 µM, first compound 0.316 µM.
The mark [35] stands for this setting: second compound 3 µM, first compound 1 µM.

Several values for one entry are separate records, joined by “and”; a condition that tells them apart may be missing. Equal values may be shown once.
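Note: spheroids exposed to compounds for seven days.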
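Throughout, for viability, T/C: 100% = DMSO vehicle control wells.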

Turning to `COc1c(OCCCN2CCOCC2)ccc2c3n(c(=NC(=O)c4cnc(N)nc4)nc12)CCN3` + CCN1C(C(=O)NC23CCC(C(=O)O)(CC2)CC3)C(c2cccc(Cl)c2F)C2(C(=O)Nc3cc(Cl)ccc32)C12CCCCC2, the IC50 is, setting by setting: under setting [1], 285 nM; under setting [2], 259 nM; under setting [3], 204 nM; under setting [4], 126 nM; under setting [5], below 3.16 nM. For the same molecule, the viability, T/C was 80.1% under setting [6]; 87.9% under setting [7]; 93.5% under setting [8]; 72.6% under setting [9]; 48.3% under setting [10]; 6.36% under setting [11]. Further, the viability, T/C by setting is: under setting [12], 73.7%; under setting [13], 88.1%; under setting [14], 79.8%; under setting [15], 64.7%; under setting [16], 47.4%; under setting [17], 6.12%. Moreover, the viability, T/C under setting [18] is 82.7%; the viability, T/C under setting [19] was 68.5%; the viability, T/C under setting [20] was 80.1%; the viability, T/C under setting [21] is 63.2%; the viability, T/C under setting [22] was 41.2%; the viability, T/C under setting [23] is 6.26%. Besides, the viability, T/C is 61.5% under setting [24]; 54.5% under setting [25]; 64.4% under setting [26]; 50% under setting [27]; 38.8% under setting [28]; 6.82% under setting [29]. In addition, the viability, T/C was 47.1% under setting [30]; 32.4% under setting [31]; 28.6% under setting [32]; 35.4% under setting [33]; 32.6% under setting [34]; 6.56% under setting [35].
With `CNC(C)C(=O)NC1CN(S(=O)(=O)c2cccc(S(=O)(=O)N3CCC4CCC(C(=O)NC(c5ccccc5)c5ccccc5)N4C(=O)C(NC(=O)C(C)NC)C3)c2)CCC2CCC(C(=O)NC(c3ccccc3)c3ccccc3)N2C1=O` (stereo not given), the viability, T/C (compound 0.00316 µM) is 84.1% and 81%. For the same molecule, the IC50 reads like this: (compound alone, run of 10/03/2022) above 1000 nM; (curve of compound) above 1000 nM.
For the molecule `NC1CCC(NC2CC2c2ccccc2)CC1` (stereo not given) + CCN1C(C(=O)NC23CCC(C(=O)O)(CC2)CC3)C(c2cccc(Cl)c2F)C2(C(=O)Nc3cc(Cl)ccc32)C12CCCCC2, the IC50 is above 100 nM under setting [1]; above 100 nM under setting [2]; above 100 nM under setting [3]; above 100 nM under setting [4]; above 100 nM under setting [5]. Besides, the viability, T/C is 116% (second compound 0.03 µM, first compound 0.000316 µM); 129% (second compound 0.03 µM, first compound 0.001 µM); 120% under setting [6]; 123% under setting [7]; 125% under setting [8]; 118% under setting [9]. For the same molecule, the viability, T/C reads like this: (second compound 0.0949 µM, first compound 0.000316 µM) 117%; (second compound 0.0949 µM, first compound 0.001 µM) 123%; under setting [12], 127%; under setting [13], 114%; under setting [14], 124%; under setting [15], 119%. For the same molecule, the viability, T/C is 108% (second compound 0.3 µM, first compound 0.000316 µM); 116% (second compound 0.3 µM, first compound 0.001 µM); 118% under setting [18]; 108% under setting [19]; 118% under setting [20]; 118% under setting [21]. For the same molecule, the viability, T/C is, setting by setting: (second compound 0.949 µM, first compound 0.000316 µM) 99.8%; (second compound 0.949 µM, first compound 0.001 µM) 102%; under setting [24], 104%; under setting [25], 99.7%; under setting [26], 103%; under setting [27], 104%. Also, the viability, T/C reads like this: (second compound 3 µM, first compound 0.000316 µM) 66.5%; (second compound 3 µM, first compound 0.001 µM) 62.2%; under setting [30], 62.2%; under setting [31], 70.7%; under setting [32], 71.4%; under setting [33], 74.8%.
Turning to `CCN1C(C(=O)NC23CCC(C(=O)O)(CC2)CC3)C(c2cccc(Cl)c2F)C2(C(=O)Nc3cc(Cl)ccc32)C12CCCCC2` (stereo not given), the viability, T/C reads like this: (compound 0.00949 µM) 94.5% and 78.9%; (compound 0.0949 µM) 95.6% [middle of 15 runs]; (compound 0.949 µM) 71.9% [middle of 15 runs]; (compound 3 µM) 46.6% [middle of 15 runs]. Besides, the IC50 (curve of compound) is 2830 nM and > 3000 nM.
`C#Cc1c(F)ccc2cc(O)cc(-c3ncc4c(N5CC6CCC(C5)N6)nc(OCC56CCCN5CC(F)C6)nc4c3F)c12` (stereo not given) + CCN1C(C(=O)NC23CCC(C(=O)O)(CC2)CC3)C(c2cccc(Cl)c2F)C2(C(=O)Nc3cc(Cl)ccc32)C12CCCCC2: the 50% inhibitory concentration (IC50) reads like this: under setting [1], above 10000 nM; under setting [2], above 10000 nM; under setting [3], above 10000 nM; under setting [4], above 10000 nM; under setting [5], below 31.6 nM. The viability, T/C is 105% under setting [8]; 98% under setting [9]; 107% under setting [10]; 82.8% under setting [11]; 107% (second compound 0.03 µM, first compound 3.16 µM); 80.3% (second compound 0.03 µM, first compound 10 µM). In addition, the viability, T/C was 117% under setting [14]; 101% under setting [15]; 91.4% under setting [16]; 89.1% under setting [17]; 95.6% (second compound 0.0949 µM, first compound 3.16 µM); 83.2% (second compound 0.0949 µM, first compound 10 µM). In addition, the viability, T/C is 95.7% under setting [20]; 86.5% under setting [21]; 93.3% under setting [22]; 82.4% under setting [23]; 78.3% (second compound 0.3 µM, first compound 3.16 µM); 88.7% (second compound 0.3 µM, first compound 10 µM). Further, the viability, T/C reads like this: under setting [26], 80.5%; under setting [27], 59.9%; under setting [28], 69.1%; under setting [29], 64.7%; (second compound 0.949 µM, first compound 3.16 µM) 70%; (second compound 0.949 µM, first compound 10 µM) 84.7%. The viability, T/C under setting [32] is 53.7%; the viability, T/C under setting [33] is 42.1%; the viability, T/C under setting [34] is 38%; the viability, T/C under setting [35] is 43.5%; the viability, T/C (second compound 3 µM, first compound 3.16 µM) was 51.2%; the viability, T/C (second compound 3 µM, first compound 10 µM) is 61.7%.
Consider `Cc1nc(N2CCC3(CC2)COC(C)C3N)c(CO)nc1Sc1ccnc(N)c1Cl` (stereo not given), for which the viability, T/C is, setting by setting: (compound 0.00949 µM) 82.5% and 83.1% and 76%; (compound 0.03 µM) 68.2% and 68.5% and 70.9%; (compound 0.0949 µM) 59.3% and 59.5% and 63.1%; (compound 0.3 µM) 54.2% and 53% and 54%; (compound 0.949 µM) 45.2% and 48% and 39.2%; (compound 3 µM) 36.6% and 38.9% and 36.2%. The IC50 (curve of compound) is 408 nM and 453 nM and 373 nM.
